Measured values published in US12600717B2, “Tricyclic compounds as inhibitors of KRAS” (Incyte Corporation, priority 2021, dated 2026).

What was measured:
KRAS G12D = KRAS G12D (Homo sapiens, UniProt P01116, G12D); assay: GDP-GTP exchange assay (bodipy-GDP/GppNHp, SOS1), KRAS G12D; format: biochemical; conditions: bodipy-loaded KRAS G12D 2.5 nM, 4 hours pre-incubation with inhibitor, 2 hours after GppNHp/SOS1; read-out: G12D_exchange IC50
Experimental: (§1) The inhibitor potency of the exemplified compounds was determined in a fluorescence based guanine nucleotide exchange assay, which measures the exchange of bodipy-GDP (fluorescently labeled GDP) for GppNHp (Non-hydrolyzable GTP analog) to generate the active state of KRAS in the presence of SOS1 (guanine nucleotide exchange factor). Inhibitors were serially diluted in DMSO and a volume of 0.1 μL was transferred to the wells of a black low volume 384-well plate. 5 μL/well volume of bodipy-loaded KRAS G12D diluted to 2.5 nM in assay buffer (25 mM Hepes pH 7.5, 50 mM NaCl, 10 mM MgCl2 and 0.01% Brij-35) was added to the plate and pre-incubated with inhibitor for 4 hours at ambient temperature. Appropriate controls (enzyme with no inhibitor or with a G12D inhibitor) were included on the plate. The exchange was initiated by the addition of a 5 μL/well volume containing 1 mM GppNHp and 300 nM SOS1 in assay buffer. The 10 μL/well reaction concentration of the bodipy-loaded KRAS G12D, GppNHp, and SOS1 were 2.5 nM, 500 uM, and 150 nM, respectively. The reaction plates were incubated at ambient temperature for 2 hours, a time estimated for complete GDP-GTP exchange in the absence of inhibitor. For the KRAS G12V mutant, similar guanine nucleotide exchange assays were used with 2.5 nM as final concentration for the bodipy loaded KRAS proteins and 3 hours incubation after adding GppNHp-SOS1 mixture. A cyclic peptide described to selectively bind G12D mutant (Sakamoto et al., BBRC 484.3 (2017), 605-611) or internal compounds with confirmed binding were used as positive controls in the assay plates. Fluorescence intensities were measured on a PheraStar plate reader instrument (BMG Labtech) with excitation at 485 nm and emission at 520 nm.
(§2) Either GraphPad prism or Genedata Screener SmartFit was used to analyze the data. The IC50 values were derived by fitting the data to a four parameter logistic equation producing a sigmoidal dose-response curve with a variable Hill coefficient.
(§3) The symbol “†” indicates IC50≤100 nM, “††” indicates IC50>100 nM but ≤1 μM; and “†††” indicates IC50 is >1 μM but ≤5 μM, “††††” indicates IC50 is >5 μM but ≤10 μM. “NA” indicates IC50 not available.

KRAS G12V = KRAS G12V (Homo sapiens, UniProt P01116, G12V); assay: GDP-GTP exchange assay (bodipy-GDP/GppNHp, SOS1), KRAS G12V; format: biochemical; conditions: bodipy-loaded KRAS G12V 2.5 nM, 3 hours incubation after adding GppNHp-SOS1; read-out: G12V_exchange IC50
Experimental: as §1, §2, §3

KRAS = assay: Inhibition of KRAS activity, assay not specified (at least one assay described herein); conditions: remark in the synthesis example, assay not named
From the text: The invention will be described in greater detail by way of specific examples. The following examples are offered for illustrative purposes, and are not intended to limit the invention in any manner. Those of skill in the art will readily recognize a variety of non-critical parameters which can be changed or modified to yield essentially the same results.

KRAS G12D, sequence (P01116 1-188 isoform P01116-2 G12D): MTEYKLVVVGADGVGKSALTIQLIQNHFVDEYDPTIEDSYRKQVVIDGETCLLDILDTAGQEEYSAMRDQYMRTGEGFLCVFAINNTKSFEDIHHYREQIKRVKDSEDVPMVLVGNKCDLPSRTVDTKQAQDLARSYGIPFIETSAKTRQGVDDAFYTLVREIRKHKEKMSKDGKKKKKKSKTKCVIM
KRAS G12V, sequence (P01116 1-188 isoform P01116-2 G12V): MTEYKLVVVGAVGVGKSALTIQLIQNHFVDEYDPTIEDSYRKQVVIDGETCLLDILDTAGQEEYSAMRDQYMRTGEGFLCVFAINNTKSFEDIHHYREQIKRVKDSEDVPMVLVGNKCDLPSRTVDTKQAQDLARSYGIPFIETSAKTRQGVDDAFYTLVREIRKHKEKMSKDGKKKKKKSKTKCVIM

| SMILES | IC50 (KRAS G12D) [nM] | IC50 (KRAS G12V) [nM] | potency of isolated peak relative to the other diastereomer (KRAS) |
| --- | --- | --- | --- |
| CN(C)C(=O)CCc1nc2c(N3CC(N(C)C)C3)nc3c(F)c(-c4nc(N)cc5ccccc45)c(CCC#N)cc3c2n1C1C2CNC1C2 (single isomer, unassigned) [Example 31a, 3-(7-(3-aminoisoquinolin-1-yl)-1-endo-(2-azabicyclo[2.1.1]hexan-5-yl)-8-(2-cyanoethyl)-4-(3-(dimethylamino)azetidin-1-yl)-6-fluoro-1H-imidazo[4,5-c]quinolin-2-yl)-N,N-dimethylpropanamide] | 100 to 1000 | 5000 to 10000 |  |
| CN(C)C(=O)CCc1nc2c(N3CC(N(C)C)C3)nc3c(F)c(-c4cc(O)cc5ccccc45)cc(CN4CCC(C#N)C4)c3c2n1C1C2CNC1C2 (stereo not drawn) [Example 16, 3-(1-((endo)2-azabicyclo[2.1.1]hexan-5-yl)-9-((3-cyanopyrrolidin-1-yl)methyl)-4-(3-(dimethylamino)azetidin-1-yl)-6-fluoro-7-(3-hydroxynaphthalen-1-yl)-1H-imidazo[4,5-c]quinolin-2-yl)-N,N-dimethylpropanamide] | 100 to 1000 | 5000 to 10000 |  |
| CCc1nc2c(N3CC(N(C)C)C3)nc3c(F)c(-c4cc(O)cc5ccccc45)c(-c4cnco4)cc3c2n1C1C2CNC1C2 (single isomer, unassigned) [Example 6a, 4-(1-((endo)-2-azabicyclo[2.1.1]hexan-5-yl)-4-(3-(dimethylamino)azetidin-1-yl)-2-ethyl-6-fluoro-8-(oxazol-5-yl)-1H-imidazo[4,5-c]quinolin-7-yl)naphthalen-2-ol] | 100 to 1000 | 5000 to 10000 |  |
| CCc1nc2c(N3CC(N(C)C)C3)nc3c(F)c(-c4cc(O)cc5ccccc45)c(C(CC#N)n4cccn4)cc3c2n1C1C2CNC1C2 (single isomer, unassigned) [Example 7a, 3-(1-((endo)-2-azabicyclo[2.1.1]hexan-5-yl)-4-(3-(dimethylamino)azetidin-1-yl)-2-ethyl-6-fluoro-7-(3-hydroxynaphthalen-1-yl)-1H-imidazo[4,5-c]quinolin-8-yl)-3-(1H-pyrazol-1-yl)propanenitrile] | ≤ 100 | 100 to 1000 |  |
| CN(C)C(=O)CCc1nc2c(N3CC(N(C)C)C3)nc3c(F)c(-c4cc(O)cc(Cl)c4C4CC4)ccc3c2n1C1C2CNC1C2 (centres unmarked) [Example 11, 3-(1-(2-azabicyclo[2.1.1]hexan-5-yl)-7-(3-chloro-2-cyclopropyl-5-hydroxyphenyl)-4-(3-(dimethylamino)azetidin-1-yl)-6-fluoro-1H-imidazo[4,5-c]quinolin-2-yl)-N,N-dimethylpropanamide] | ≤ 100 | 1000 to 5000 |  |
| CN(C)C1CN(c2nc3c(F)c(-c4cc(O)cc5ccccc45)c(CCC#N)cc3c3c2nc(CN2CCCC2=O)n3C2C3CNC2C3)C1 (single isomer, unassigned) [Example 5a, 3-(1-((endo)-2-azabicyclo[2.1.1]hexan-5-yl)-4-(3-(dimethylamino)azetidin-1-yl)-6-fluoro-7-(3-hydroxynaphthalen-1-yl)-2-((2-oxopyrrolidin-1-yl)methyl)-1H-imidazo[4,5-c]quinolin-8-yl)propanenitrile] | ≤ 100 | ≤ 100 |  |
| CCc1nc2c(-c3ccnc(N4CCN(C)CC4)c3)nc3c(F)c(-c4cc(O)cc5ccccc45)c(CCC#N)cc3c2n1C1C2CNC1C2 (single isomer, unassigned) [Example 22a, 3-(1-((endo)-2-Azabicyclo[2.1.1]hexan-5-yl)-2-ethyl-6-fluoro-7-(3-hydroxynaphthalen-1-yl)-4-(2-(4-methylpiperazin-1-yl)pyridin-4-yl)-1H-imidazo[4,5-c]quinolin-8-yl)propanenitrile] | ≤ 100 | 100 to 1000 |  |
| CCc1nc2c(N3CC(N(C)C)C3)nc3c(F)c(-c4cc(O)cc5ccccc45)c(C(CC#N)n4cc(CO)cn4)cc3c2n1C1C2CNC1C2 (single isomer, unassigned) [Example 8b, 3-(1-((endo)-2-azabicyclo[2.1.1]hexan-5-yl)-4-(3-(dimethylamino)azetidin-1-yl)-2-ethyl-6-fluoro-7-(3-hydroxynaphthalen-1-yl)-1H-imidazo[4,5-c]quinolin-8-yl)-3-(4-(hydroxymethyl)-1H-pyrazol-1-yl)propanenitrile] | ≤ 100 | 100 to 1000 |  |

Continued, in another order:

| IC50 (KRAS G12D) [nM] | IC50 (KRAS G12V) [nM] | SMILES | potency of isolated peak relative to the other diastereomer (KRAS) |
| --- | --- | --- | --- |
| ≤ 100 | ≤ 100 | CC(=O)N1CCN(C(=O)CCc2nc3c(N4CC(N(C)C)C4)nc4c(F)c(-c5cc(O)cc6ccccc56)c(CCC#N)cc4c3n2C2C3CNC2C3)CC1 (single isomer, unassigned) [Example 4a, 3-(2-(3-(4-acetylpiperazin-1-yl)-3-oxopropyl)-1-((endo)-2-azabicyclo[2.1.1]hexan-5-yl)-4-(3-(dimethylamino)azetidin-1-yl)-6-fluoro-7-(3-hydroxynaphthalen-1-yl)-1H-imidazo[4,5-c]quinolin-8-yl)propanenitrile] |  |
| ≤ 100 | 1000 to 5000 | CN(C)C(=O)CCc1nc2c(N3CC(N(C)C)C3)nc3c(F)c(-c4cc(O)cc5ccccc45)cc(CO)c3c2n1[C@@H]1[C@@H]2CN[C@H]1C2 (relative stereo) [Example 15, 3-(1-((endo)2-azabicyclo[2.1.1]hexan-5-yl)-4-(3-(dimethylamino)azetidin-1-yl)-6-fluoro-9-(hydroxymethyl)-7-(3-hydroxynaphthalen-1-yl)-1H-imidazo[4,5-c]quinolin-2-yl)-N,N-dimethylpropanamide] |  |
| ≤ 100 | 1000 to 5000 | CN(C)C(=O)CCc1nc2c(N3CC(N(C)C)C3)nc3c(F)c(-c4cccc5c4CC(F)(F)CC5)c(CCC#N)cc3c2n1[C@@H]1[C@@H]2CN[C@H]1C2 (relative stereo) [Example 33, 3-(1-endo-(2-azabicyclo[2.1.1]hexan-5-yl)-8-(2-cyanoethyl)-7-(7,7-difluoro-5,6,7,8-tetrahydronaphthalen-1-yl)-4-(3-(dimethylamino)azetidin-1-yl)-6-fluoro-1H-imidazo[4,5-c]quinolin-2-yl)-N,N-dimethylpropanamide] |  |
| ≤ 100 | ≤ 100 | CN1CCC[C@H]1COc1nc2c(F)c(-c3cc(O)cc4ccccc34)c(CCC#N)cc2c2c1nc(-c1cn(C3CCC3)nn1)n2C1C2CNC1C2 (single isomer, unassigned) [Example 27a] |  |
| ≤ 100 | ≤ 100 | CC(=O)N1CC[C@H](n2cnc3c(O[C@@H](C)[C@@H]4CCCN4C)nc4c(F)c(-c5cccc6cccc(C#N)c56)c(Cl)cc4c32)C[C@H]1CC#N (single isomer, unassigned) [Example 39b] | potent peak |
| ≤ 100 | ≤ 100 | CCc1nc2c(-c3cc(C(=O)NC)ccc3F)nc3c(F)c(-c4cc(O)cc5ccccc45)c(CCC#N)cc3c2n1C1C2CNC1C2 (single isomer, unassigned) [Example 17a, 3-(1-((endo)-2-Azabicyclo[2.1.1]hexan-5-yl)-8-(2-cyanoethyl)-2-ethyl-6-fluoro-7-(3-hydroxynaphthalen-1-yl)-1H-imidazo[4,5-c]quinolin-4-yl)-4-fluoro-N-methylbenzamide] | More potent peak |
| ≤ 100 | 100 to 1000 | CN(C)C1CN(c2nc3c(F)c(-c4cc(O)cc5ccccc45)c(CCC#N)cc3c3c2nc(C2CC2)n3C2C3CNC2C3)C1 (single isomer, unassigned) [Example 25a, 3-(1-((endo)-2-Azabicyclo[2.1.1]hexan-5-yl)-2-cyclopropyl-4-(3-(dimethylamino)azetidin-1-yl)-6-fluoro-7-(3-hydroxynaphthalen-1-yl)-1H-imidazo[4,5-c]quinolin-8-yl)propanenitrile] |  |
